Common to all, as to assay type: cell-based
The subject of experiment [1] is YAP/TAZ-TEAD transcription. Put plainly: Reporter gene assay for measuring the inhibition of YAP/TAZ-TEAD transcription (TEAD-responsive element luciferase reporter in Hek293T cells). As to conditions: Hek293T cells transfected with TEAD-responsive luciferase reporter, 24 hours incubation. The protocol:
Hek293T cells are cultured in DMEM supplemented with 10% fetal bovine serum, Sodium pyruvate, Sodium bicarbonate, L-glutamine. The cells are harvested and transiently transfected with TEAD-responsive element luciferase reporter. Transfected cells are plated in 384-wells plate containing pre-diluted compounds. After 24 hours incubation at 37° C./5% CO2, assay plates were cooled down to RT and levelled to an equal volume per well, prior to the addition of 25 uL luciferase substrate SteadyLite (Perkin Elmer)/well. The plate was shaken for 10 min at 600 rpm, centrifuged for 1 min at 500 rpm and measured with an Envision reader (PerkinElmer). The amount of relative light units produced by the TEAD reporter is used to calculated percent of inhibition.
The percent of reporter inhibition was calculated in the presence of a positive control inhibitor (100% inhibition) versus a condition with the presence of the vehicle basal activity of the reporter (0% inhibition). The ability of a test compound to inhibit this activity was determined as: Percentage inhibition=[1−((RLU determined in the presence of vehicle−RLU determined for sample with test compound present) divided by (RLU determined in the presence of vehicle−RLU determined for sample with positive control inhibitor))]*100
The activities of example compounds tested are depicted in Table 3. The activity ranges A, B and C refer to IC50 values in the reporter gene assay as follows: “A”: IC50<1 μM; “B”: 1 μM≤IC50≤20 μM and “C”: IC50>20 μM; NT=not tested.

Experiment [2] has as its system NCI-H226. Put plainly: Mesothelioma cell line proliferation assay (ATPlite), NCI-H226. The settings on record: Homo sapiens, 144 h; NCI-H226 mesothelioma cells, 6 days incubation, ATPlite cell viability. The protocol:
(§1) Mesothelioma cell lines, NCI-H226 and NCI-H2052 (all sourced from the ATCC cell culture collection) are plated in 96-well plates (Corning® 96 Well White Polystyrene Microplate clear flat bottom, white polystyrene (TC-Treated)), at 1500 cells/well in full medium (RPMI 1640 ATCC modification with L-glutamine, HEPES, Phenol Red, Sodium Pyruvate, High glucose, Low sodium bicarbonate and 10% fetal bovine serum). Cells are incubated overnight at 37° C. in an incubator with 5% CO2. Then compounds, dissolved in DMSO, are added in dose-response. Cells are incubated with compound dilutions for another 6 days at 37° C. in an incubator with 5% CO2. Cell viability is quantitated using the ATPlite kit (Perkin-Elmer) and the luminescence is read-out using an Envision instrument (Perkin-Elmer). The amount of relative light units produced using the ATPlite kit is used to calculated percent of inhibition.
(§2) The activities of some example compounds are depicted in Table 4. The activity ranges A, B and C refer to EC50 values in the mesothelioma cell line proliferation assay as described as follows: “A”: EC50<1 μM; “B”: 1 μM≤EC50≤10 μM and “C”: EC50>10 μM; NT: not tested.

In experiment [3] the test system is NCI-H2052. The experiment is described as follows: Mesothelioma cell line proliferation assay (ATPlite), NCI-H2052. As to conditions: Homo sapiens, 144 h; NCI-H2052 mesothelioma cells, 6 days incubation, ATPlite cell viability. The protocol: as §1, §2

The structures appear in SMILES notation. Bounds are passed on as bounds.

Among the data in US12673950B2, “Spiros and related analogs for inhibiting YAP/TAZ-TEAD” (THE KATHOLIEKE UNIVERSITEIT LEUVEN, priority 2021, dated 2026) are IC50 and EC50 values, retold here.

In experiment [1] (Homo sapiens, HEK-293T, 24 h), `CCC(=O)N1CC2(Cc3ccccc3N(c3ccc(C(F)(F)F)cc3)C2)C1` [Cpd. No. 007, 1-(1′-(4-(trifluoromethyl)phenyl)-1′,4′-dihydro-2′H-spiro[azetidine-3,3′-quinolin]-1-yl)propan-1-one] returned an IC50 greater than 20 µM. On to `CCC(=O)N1CCC2(Cc3ccccc3N(c3ccc(C(F)(F)F)cc3)C2)C1` (single isomer, unassigned) [Cpd. No. 004-En1, (R)- or (S)-1-(1′-(4-(trifluoromethyl)phenyl)-1′,4′-dihydro-2′H-spiro[pyrrolidine-3,3′-quinolin]-1-yl)propan-1-one], for which, in experiment [1], the IC50 was greater than 20 µM. As to `C=CC(=O)N1CCC2(CC1)Cc1ccccc1N(c1ccc(C(F)(F)F)cc1)C2=O` [Cpd. No. 001, 1-acryloyl-1′-(4-(trifluoromethyl)phenyl)-1′,4′-dihydro-2′H-spiro[piperidine-4,3′-quinolin]-2′-one], the IC50 in experiment [1] (Homo sapiens, HEK-293T, 24 h) was less than 1 µM. In turn, `CCC(=O)N1CCC2(Cc3ccccc3N(c3ccc(C(F)(F)F)cc3)C2)C1` (single isomer, unassigned) [Cpd. No. 004-En2, (R)- or (S)-1-(1′-(4-(trifluoromethyl)phenyl)-1′,4′-dihydro-2′H-spiro[pyrrolidine-3,3′-quinolin]-1-yl)propan-1-one] gave an IC50 in experiment [1] of 1 to 20 µM. As to `CC(NC(=O)N1CCC2(Cc3ccccc3N(c3ccc(C(F)(F)F)cc3)C2)C1)c1ccccn1` (stereo not shown) [Cpd. No. 008, N-[1-(2-pyridyl)ethyl]-1-[4-(trifluoromethyl)phenyl]spiro[2,4-dihydroquinoline-3,3′-pyrrolidine]-1′-carboxamide], in experiment [1] (Homo sapiens, HEK-293T, 24 h), the IC50 was 1 to 20 µM. In the case of `C=CC(=O)N1CCC2(Cc3ccccc3N(c3ccc(C(F)(F)F)cc3)C2)C1` (racemic) [Cpd. No. 003, 1-(1′-(4-(trifluoromethyl)phenyl)-1′,4′-dihydro-2′H-spiro[pyrrolidine-3,3′-quinolin]-1-yl)prop-2-en-1-one], the IC50 in experiment [1] (Homo sapiens, HEK-293T, 24 h) was less than 1 µM. Also, the EC50 in experiment [2] and in experiment [3] was less than 1 µM throughout. On to `C=CC(=O)N1CC2(Cc3ccccc3N(c3ccc(C(F)(F)F)cc3)C2)C1` [Cpd. No. 006, 1-(1′-(4-(trifluoromethyl)phenyl)-1′,4′-dihydro-2′H-spiro[azetidine-3,3′-quinolin]-1-yl)prop-2-en-1-one], for which the IC50 in experiment [1] (Homo sapiens, HEK-293T, 24 h) was less than 1 µM. The EC50 in experiment [2] and in experiment [3] was less than 1 µM in each case. In the case of `CS(=O)(=O)N1CCC2(Cc3cc(C(F)(F)F)ccc3N(c3ccc(C(F)(F)F)cc3)C2)C1` (stereo not shown) [Cpd. No. 011, 1′-methylsulfonyl-6-(trifluoromethyl)-1-[4-(trifluoromethyl)phenyl]spiro[2,4-dihydroquinoline-3,3′-pyrrolidine]], the IC50 in experiment [1] (Homo sapiens, HEK-293T, 24 h) was less than 1 µM. As to `C=CC(=O)N1CCC2(Cc3cc(C(F)(F)F)ccc3N(c3ccc(C(F)(F)F)cc3)C2)C1` (stereo not shown) [Cpd. No. 009, 1-[6-(trifluoromethyl)-1-[4-(trifluoromethyl)phenyl]spiro[2,4-dihydroquinoline-3,3′-pyrrolidine]-1′-yl]prop-2-en-1-one], in experiment [1] (Homo sapiens, HEK-293T, 24 h), the IC50 is less than 1 µM. The compound `C=CC(=O)N1CCC2(Cc3ccccc3N(c3ccc(C(F)(F)F)cc3)C2)C1` (single isomer, unassigned) [Cpd. No. 003-En1, (R)- or (S)-1-(1′-(4-(trifluoromethyl)phenyl)-1′,4′-dihydro-2′H-spiro[pyrrolidine-3,3′-quinolin]-1-yl)prop-2-en-1-one] returned an IC50 in experiment [1] of less than 1 µM. Consider `C=CC(=O)N1CCC2(Cc3ccccc3N(c3ccc(C(F)(F)F)cc3)C2)C1` (single isomer, unassigned) [Cpd. No. 003-En2, (R)- or (S)-1-(1′-(4-(trifluoromethyl)phenyl)-1′,4′-dihydro-2′H-spiro[pyrrolidine-3,3′-quinolin]-1-yl)prop-2-en-1-one], for which the IC50 in experiment [1] (Homo sapiens, HEK-293T, 24 h) was less than 1 µM. Further, the concentration giving a half-maximal response (EC50) in experiment [2] and in experiment [3] was less than 1 µM each time. In experiment [1], `CS(=O)(=O)N1CCC2(Cc3ccccc3N(c3ccc(C(F)(F)F)cc3)C2)C1` (single isomer, unassigned) [Cpd. No. 005-En2, (R)- or (S)-1-(methylsulfonyl)-1′-(4-(trifluoromethyl)phenyl)-1′,4′-dihydro-2′H-spiro[pyrrolidine-3,3′-quinoline]] registered an IC50 of less than 1 µM. For the same compound, the EC50 in experiment [2] and in experiment [3] was less than 1 µM throughout. In experiment [1] (Homo sapiens, HEK-293T, 24 h), `CC(=O)N1CCC2(Cc3cc(C(F)(F)F)ccc3N(c3ccc(C(F)(F)F)cc3)C2)C1` (stereo not shown) [Cpd. No. 010, 1-[6-(trifluoromethyl)-1-[4-(trifluoromethyl)phenyl]spiro[2,4-dihydroquinoline-3,3′-pyrrolidine]-1′-yl]ethanone] came in with an IC50 greater than 20 µM.

For `C=CC(=O)N1CCC2(CC1)Cc1ccccc1N(c1ccc(C(F)(F)F)cc1)C2` [Cpd. No. 002, 1-(1′-(4-(trifluoromethyl)phenyl)-1′,4′-dihydro-2′H-spiro[piperidine-4,3′-quinolin]-1-yl)prop-2-en-1-one], the IC50 in experiment [1] (Homo sapiens, HEK-293T, 24 h) is less than 1 µM. The EC50 in experiment [2] was less than 1 µM; in experiment [3], 1 to 10 µM.

Turning to `CS(=O)(=O)N1CCC2(Cc3ccccc3N(c3ccc(C(F)(F)F)cc3)C2)C1` (single isomer, unassigned) [Cpd. No. 005-En1, (R)- or (S)-1-(methylsulfonyl)-1′-(4-(trifluoromethyl)phenyl)-1′,4′-dihydro-2′H-spiro[pyrrolidine-3,3′-quinoline]], the IC50 in experiment [1] was greater than 20 µM.
